Results from patent publication US20160244802A1, “Protein Demethylases Comprising a JMJC Domain” (The University of North Carolina at Chapel Hill, priority 2005, published 2016).

What was measured:
[1] = system: PSA enhancer and NKX3.1 gene; assay: ChIP assay in LNCaP cells; format: cell-based; details: 50 nM, 1 hour
Experimental: (§1) Recombinant JMJD1A was mixed with in vitro translated […] AR in the absence or presence of R1881 (100 nM). After immunoprecipitation with anti-JHDM2A antibody, AR was detected by autoradiography. […] LNCaP cells were cultured in charcoal-stripped serum medium for three days and then treated without or with R1881 (50 nM) for 1 hour before being processed for ChIP analysis. […] LNCaP cells were transfected with a scramble (siCON), siJHDM2A or siLSD1 as indicated. Tubulin served as a loading control. […] The cells were treated as in FIG. 14B except the cells were collected for RNA isolation 8 hours after the R1881 treatment. […] The LNCaP cells were treated with siJHDM2A or siCON for three days and then 50 nM R1881 for 1 hour before processed for ChIP assays using antibodies as indicated.
For ChIP assay in LNCaP cells, the cells were cultured in charcoal-stripped serum medium for three days before treatment with R1881 (50 nM) for 1 hour. The ChIP assay was performed essentially as previously described (Yoon, et al. (2005) Mol. Cell Biol. 25:324-335). Primers for RT-PCR analysis of the PSA mRNA were 5′-GCCCACCCAGGAGCCAGCACT-3′ (SEQ ID NO:27) and 5′-GGCCCCCAGAATCACCCGAGCAG-3′ (SEQ ID NO:28).

[2] = system: AR target genes PSA, NKX3.1 and TMPRSS22; assay: Quantitative RT-PCR of AR target genes in LNCaP cells; format: cell-based; details: 50 nM, 8 hours
Experimental: as §1
For ChIP assay in LNCaP cells, the cells were cultured in charcoal-stripped serum medium for three days before treatment with R1881 (50 nM) for 1 hour. […]
To directly test and compare the role of JHDM2A and LSD1 in hormone-dependent transcriptional activation, we used siRNA to knockdown JHDM2A and LSD1 in LNCaP cells (FIG. 14C). We then evaluated the effects of JHDM2A or LSD1 knockdown on the hormone induced activation of three AR target genes, PSA, NKX3.1 and TMPRSS22, by quantitative RT-PCR. […]

[3] = system: modified histone H3 peptide substrates (H3K4 me3, me2, me1); assay: Histone demethylase assay with modified histone H3 peptide substrates, mass spectrometry; format: biochemical

Compound: C[C@]1(O)CC[C@H]2[C@@H]3CCC4=CC(=O)CCC4=C3C=C[C@@]21C [R1881]
- binding of the AR to the PSA enhancer [1]: strong binding
- transcription from AR target genes [2]: robustly activated transcription

Compound: RBP2: Flag-tagged JmjC domain H3K4 demethylase expressed in SF9 cells by baculovirus, affinity purified
- removal of the me1 modification state ([3]; H3K4me1 peptide, in vitro): failed to catalyze removal
- demethylation of the modified substrate ([3]; H3K4me3 and me2 peptides, recombinant Flag-RBP2): 80-90%
